The values below come from ChEMBL document CHEMBL1128009, “Stereoselectivity of the positive inotropic effects of newer diazinone-cardiotonics” (Bioorg Med Chem Lett, 1994).

Assay [1] can be described thus: Calcium sensitizing activity. The class given is functional.
Assay [2] deals with Phosphodiesterase 3 (Homo sapiens, UniProt Q14432+Q13370). The experiment in a line: Inhibition of phosphodiesterase 3. The class given is protein assay.
Assay [3] in a line: Calcium sensitizing activity (Active). The assay is classed as functional.
Assay [4] is described as follows: Calcium sensitizing activity (No Effect). The class given is functional.

One may read the EC50 as the concentration needed to bring the measured effect to its halfway point. Take `COc1ccc(C(=O)N2CCCc3cc(C4=NNC(=O)SC4C)ccc32)cc1OC` (single isomer, unassigned; (+)): in assay [1], the EC50 is 1.7 µM.
As a reminder, the IC50 is the midpoint of a concentration-inhibition curve. Higher therefore signals weaker potency in that assay. Consider `CC1CC(=O)NN=C1c1ccc2[nH]c(-c3cc[nH]n3)nc2c1` (single isomer, unassigned; (+)) [MERIBENDAN], for which the EC50 in assay [1] is 470 µM. The compound further registered an IC50 in assay [2] of 1.6 µM.
In the case of `COc1ccc(-c2nc3cc(C4=NNC(=O)CC4C)ccc3[nH]2)cc1` (single isomer, unassigned; (+)) [PIMOBENDAN], in assay [1], the EC50 was found to be 152 µM.
With `COc1ccc(C(=O)N2CCCc3cc(C4=NNC(=O)SC4C)ccc32)cc1OC` (single isomer, unassigned; (-)), the EC50 in assay [1] is greater than 100 µM.
As to `CC1CC(=O)NN=C1c1ccc2[nH]c(-c3cc[nH]n3)nc2c1` (single isomer, unassigned; (-)) [MERIBENDAN], the EC50 in assay [1] was determined as 190 µM. Besides, the IC50 in assay [2] stood at 0.04 µM.
On to `COc1ccc(-c2nc3cc(C4=NNC(=O)CC4C)ccc3[nH]2)cc1` (stereo in doubt) [PIMOBENDAN], for which, in assay [1], the EC50 is 100 µM.
In assay [2], `CC1CC(=O)NN=C1c1cc2ccc(OCCN3CCCCC3)cc2s1` (stereo in doubt; (+)) displayed an IC50 of 14.8 µM. Besides, the EC50 entry in assay [3] is on record as “Active”.
Take `CC1CC(=O)NN=C1c1cc2ccc(OCCN3CCCCC3)cc2s1` (stereo in doubt; (-)): in assay [2], the IC50 turned out to be 0.08 µM. In addition, the EC50 result in assay [4] is given as “Not Active”.
Turning to `C[C@@H]1CC(=O)NN=C1c1ccc(NN=C(C#N)C#N)cc1` [LEVOSIMENDAN], in assay [1], the EC50 was greater than 100 µM. The compound also came in with an IC50 in assay [2] of 0.008 µM.
Take `CC1CC(=O)NN=C1c1ccc(NN=C(C#N)C#N)cc1` (stereo unspecified) [SIMENDAN]: in assay [1], the EC50 is greater than 100 µM. The compound further had an IC50 in assay [2] of 1.5 µM.
